Measurements published in patent US10328027B2, “Assisted particle size reduction process” (HOVIONE INTERNATIONAL LTD, priority 2014, dated 2019).

Experiment: Particle size distribution (Dv10, Dv50, Dv90, span) of processed API particles
Format: physicochemical
Excerpt: The most common approach for expressing particle size results is to report Dv10, Dv50, and Dv90 values based on a volume distribution. The span calculation [(Dv90−Dv10)/Dv50] is the most common format to express distribution width.
The terms Dv10, Dv50, and Dv90 as discussed herein are known to those skilled in the art. Dv50 refers to the maximum particle diameter below which 50% of the sample volume exists. Dv90 refers to the maximum particle diameter below which 90% of the sample volume exists. Dv10 refers to the maximum particle diameter below which 10% of the sample volume exists. The term particle size distribution span refers to the result of the calculation [(Dv90−Dv10)/Dv50].

[1] = Comparison, process of WO2011131947 (water), product isolated by spray drying (45° C.)
[2] = Comparison, process of WO2011131947, suspension in anti-solvent water, after size reduction (750 bar, 45 cycles)
[3] = Example 2, invention, product isolated by spray drying (45° C.)
[4] = Example 2, invention, suspension in water/acetone, after particle size reduction (microfluidizer 750 bar, 45 cycles)
[5] = Example 2, invention, water/acetone, after aging for 22 hours
[6] = Example 1, after aging for 20 hours without stirring at room temperature
[7] = Example 1, product isolated by spray drying (100° C.) after distillation to approx. 100% heptane
[8] = Example 1, suspension in n-heptane/ethyl acetate, after particle size reduction (microfluidizer 400 bar, 50 cycles)

CCC(=O)O[C@]1(C(=O)SCF)[C@H](C)C[C@H]2[C@@H]3C[C@H](F)C4=CC(=O)C=C[C@]4(C)[C@@]3(F)[C@@H](O)C[C@@]21C [Fluticasone propionate]
Dv10 [1]: 0.99 μm | Dv50 [1]: 1.94 μm | Dv90 [1]: 3.60 μm | span [(Dv90-Dv10)/Dv50] [1]: 1.4 | Dv10 [2]: 1.28 μm | Dv50 [2]: 2.44 μm | Dv90 [2]: 4.45 μm | span [(Dv90-Dv10)/Dv50] [2]: 1.3 | Dv10 [3]: 1.38 μm | Dv50 [3]: 2.42 μm | Dv90 [3]: 4.18 μm | span [(Dv90-Dv10)/Dv50] [3]: 1.2 | Dv10 [4]: 0.92 μm | Dv50 [4]: 1.81 μm | Dv90 [4]: 3.39 μm | span [(Dv90-Dv10)/Dv50] [4]: 1.4 | Dv10 [5]: 1.42 μm | Dv50 [5]: 2.53 μm | Dv90 [5]: 4.43 μm | span [(Dv90-Dv10)/Dv50] [5]: 1.2

C[N+]1(C)[C@@H]2C[C@@H](OC(=O)C(O)(c3cccs3)c3cccs3)C[C@H]1[C@@H]1O[C@@H]12 [Tiotropium Bromide]
Dv10 [6]: 0.78 μm | Dv50 [6]: 3.33 μm | Dv90 [6]: 7.45 μm | span [(Dv90-Dv10)/Dv50] [6]: 2.0 | Dv10 [7]: 0.83 μm | Dv50 [7]: 3.02 μm | Dv90 [7]: 7.05 μm | span [(Dv90-Dv10)/Dv50] [7]: 2.1 | Dv10 [8]: 0.67 μm | Dv50 [8]: 2.98 μm | Dv90 [8]: 7.09 μm | span [(Dv90-Dv10)/Dv50] [8]: 2.2
